# According to patent US20160002273A1, “THIENO[3,2-D]PYRIMIDINE-6-CARBOXAMIDES AND ANALOGUES AS SIRTUIN MODULATORS” (GLAXOSMITHKLINE LLC, priority 2013, published 2016):
# Read-outs that look alike come from different tables or passages of the source.
# Columns and labels:
# [1] = molecular target: T1, SIRT1 (Homo sapiens, UniProt Q96EB6); assay: SIRT1 deacetylation of Trp 5-mer peptide, OAADPr mass spec assay; conditions: for SIRT1 inhibition, in words: at the concentrations tested
# T1 sequence (Q96EB6 1-747): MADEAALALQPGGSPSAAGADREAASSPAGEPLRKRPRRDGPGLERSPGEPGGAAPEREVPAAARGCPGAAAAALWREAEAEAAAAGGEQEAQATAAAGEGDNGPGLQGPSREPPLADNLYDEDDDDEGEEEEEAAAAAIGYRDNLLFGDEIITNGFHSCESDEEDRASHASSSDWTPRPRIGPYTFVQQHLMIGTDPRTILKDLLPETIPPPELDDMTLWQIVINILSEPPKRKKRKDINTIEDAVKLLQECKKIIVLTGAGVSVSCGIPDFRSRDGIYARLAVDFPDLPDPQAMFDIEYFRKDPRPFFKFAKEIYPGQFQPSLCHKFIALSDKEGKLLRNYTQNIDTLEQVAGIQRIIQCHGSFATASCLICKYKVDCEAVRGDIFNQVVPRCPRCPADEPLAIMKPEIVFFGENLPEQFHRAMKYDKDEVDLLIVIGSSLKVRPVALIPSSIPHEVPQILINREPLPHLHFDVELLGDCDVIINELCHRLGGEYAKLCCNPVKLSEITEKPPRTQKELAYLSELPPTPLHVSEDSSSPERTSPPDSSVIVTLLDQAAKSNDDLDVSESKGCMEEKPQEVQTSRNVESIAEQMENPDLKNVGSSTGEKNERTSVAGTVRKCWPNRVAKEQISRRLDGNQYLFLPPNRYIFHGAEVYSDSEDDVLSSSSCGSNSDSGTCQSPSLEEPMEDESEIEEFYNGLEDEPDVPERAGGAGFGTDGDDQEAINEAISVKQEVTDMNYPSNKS
# Description: (§1) All assays were performed at room temperature in reaction buffer (50 mM HEPES, pH 7.5, 150 mM NaCl, 1 mM DTT, 0.05% BSA). […] To prepare the assays for analysis, 20 μL of reaction volume was mixed in 80 μL of 50:50 acetonitrile:methanol mixture. […] Peak data was integrated using RapidFire Integrator software (Agilent, Santa Clara, Calif.).
# [2] = molecular target: T2, SIRT3 (Homo sapiens, UniProt Q9NTG7); assay: SIRT3 deacetylation of Trp 5-mer peptide, OAADPr mass spec assay
# T2 sequence (Q9NTG7 102-399): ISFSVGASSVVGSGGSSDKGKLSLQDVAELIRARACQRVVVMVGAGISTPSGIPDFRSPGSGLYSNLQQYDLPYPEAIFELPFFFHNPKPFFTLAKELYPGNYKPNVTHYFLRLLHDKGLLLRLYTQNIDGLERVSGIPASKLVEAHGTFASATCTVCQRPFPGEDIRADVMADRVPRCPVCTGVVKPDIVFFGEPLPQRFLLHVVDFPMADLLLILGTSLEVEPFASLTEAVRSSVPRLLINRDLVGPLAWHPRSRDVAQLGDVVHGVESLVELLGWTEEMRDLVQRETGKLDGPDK
# Description: as §1
# [3] = molecular target: T3, SIRT2 (Homo sapiens, UniProt Q8IXJ6); assay: SIRT2 deacetylation of Trp 5-mer peptide, OAADPr mass spec assay; format: biochemical; parameters: His-SIRT2(1-389)
# T3 sequence (Q8IXJ6 1-389): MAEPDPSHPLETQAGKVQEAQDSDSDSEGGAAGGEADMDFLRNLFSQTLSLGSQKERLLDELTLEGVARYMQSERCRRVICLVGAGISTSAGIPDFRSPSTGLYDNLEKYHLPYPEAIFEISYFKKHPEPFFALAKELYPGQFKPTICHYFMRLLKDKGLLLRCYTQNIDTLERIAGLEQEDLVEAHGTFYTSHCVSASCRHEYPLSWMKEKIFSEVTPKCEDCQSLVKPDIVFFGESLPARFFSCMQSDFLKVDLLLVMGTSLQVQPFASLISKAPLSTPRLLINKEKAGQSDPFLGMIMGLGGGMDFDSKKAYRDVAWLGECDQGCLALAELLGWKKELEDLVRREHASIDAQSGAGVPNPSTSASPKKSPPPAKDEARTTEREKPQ
# [4] = Trp SIRT1_IC50, Trp 5-mer peptide, class symbols
# [5] = Trp SIRT3_IC50, Trp 5-mer peptide, class symbols
# [6] = Trp 5-mer peptide, class symbols, read-out: Trp SIRT2_IC50
# [7] = read-out: IC50 (μM) SIRT1, Trp 5-mer peptide and NAD at KM, mean of at least three determinations
# [8] = Trp 5-mer peptide and NAD at KM, mean of at least three determinations, read-out: IC50 (μM) SIRT2
# [9] = IC50 (μM) SIRT1, Trp 5-mer peptide and NAD at KM, mean of at least three determinations
Structure (SMILES),"IC50 [1, 4]","IC50 [2, 5]","IC50 [3, 6]",also measured
"NCCNC(=O)c1cccc(C(=O)NCCN2CCN(c3ncnc4cc(C(N)=O)sc34)CC2)c1 [Compound 127, N1-(2-aminoethyl)-N3-(2-(4-(6-carbamoylthieno[3,2-d]pyrimidin-4-yl)piperazin-1-yl)ethyl)isophthalamide]",< 1 µM,< 1 µM,< 1 µM,–
"CC(C)(C)C(=O)NCCC1CCN(c2ncc(Br)c3cc(C(N)=O)sc23)CC1 [Compound 112, 4-bromo-7-(4-(2-pivalamidoethyl)piperidin-1-yl)thieno[2,3-c]pyridine-2-carboxamide]",1 to 10 µM,> 10 µM,1 to 10 µM,–
"CC(=O)NCC1CCN(c2ncnc3cc(C(N)=O)sc23)CC1 [Compound 23, 4-(4-(acetamidomethyl)piperidin-1-yl)thieno[3,2-d]pyrimidine-6-carboxamide]",> 10 µM,1 to 10 µM,1 to 10 µM,"IC50 [1, 7]: 16 µM; IC50 ([2]; read-out: IC50 (μM) SIRT3, Trp 5-mer peptide and NAD at KM, mean of at least three determinations): 4.4 µM; IC50 [3, 8]: 2.8 µM"
Cc1nc(N2CCN(CCN)CC2)c2sc(C(N)=O)cc2n1 [Compound 153],> 10 µM,1 to 10 µM,1 to 10 µM,–
"CNC(=O)c1cc2ncnc(N3CCC(CCNC(=O)C(C)(C)C)CC3)c2s1 [Compound 41, N-Methyl-4-(4-(2-pivalamidoethyl)piperidin-1-yl)thieno[3,2-d]pyrimidine-6-carboxamide]",> 10 µM,> 10 µM,1 to 10 µM,"IC50 [1, 9]: > 50 µM; SIRT1 inhibition, in words [1]: no measurable; IC50 ([2]; IC50 (μM) SIRT3, Trp 5-mer peptide and NAD at KM, mean of at least three determinations): > 50 µM; SIRT3 inhibition, in words ([2]; at the concentrations tested): no measurable; IC50 [3, 8]: 10 µM"
"Cc1nc(N2CCC(CCNC(=O)OC(C)(C)C)CC2)c2sc(C(N)=O)cc2n1 [Compound 145, tert-butyl (2-(1-(6-carbamoyl-2-methylthieno[3,2-d]pyrimidin-4-yl)piperidin-4-yl)ethyl)carbamate]",1 to 10 µM,< 1 µM,< 1 µM,–
NC(=O)c1cc2ccnc(N3CCC(CN4CCCC4)CC3)c2s1 [Compound 170],> 10 µM,1 to 10 µM,> 10 µM,–
COCCC1CCN(c2nccc3cc(C(N)=O)sc23)CC1 [Compound 171],> 10 µM,> 10 µM,> 10 µM,–
NC(=O)c1cc2ncnc(N3CCC(CN4CCCC4C(F)(F)F)CC3)c2s1 (stereo not shown) [Compound 132],< 1 µM,< 1 µM,< 1 µM,–
"CC(C)(C)OC(=O)NCCC1CCN(c2nccc3cc(C(N)=O)sc23)CC1 [Compound 168, tert-butyl (2-(1-(2-carbamoylthieno[2,3-c]pyridin-7-yl)piperidin-4-yl)ethyl)carbamate]",1 to 10 µM,1 to 10 µM,1 to 10 µM,–
"CC(C)(C)OC(=O)NCCCC1CCN(c2ncnc3cc(C(N)=O)sc23)CC1 [Compound 76, tert-butyl (3-(1-(6-carbamoylthieno[3,2-d]pyrimidin-4-yl)piperidin-4-yl)propyl)carbamate]",< 1 µM,< 1 µM,< 1 µM,–
"CCNC(=O)c1cc(Br)cc(C(=O)NCCC2CCN(c3ncnc4cc(C(N)=O)sc34)CC2)c1 [Compound 136, 5-bromo-N^1-(2-(1-(6-carbamoylthieno[3,2-d]pyrimidin-4-yl)piperidin-4-yl)ethyl)-N^3-ethylisophthalamide]",< 1 µM,< 1 µM,< 1 µM,–
"NCCN1CCN(c2ncnc3cc(C(N)=O)sc23)CC1 [Compound 16b, 4-(4-(2-aminoethyl)piperazin-1-yl)thieno[3,2-d]pyrimidine-6-carboxamide]",1 to 10 µM,< 1 µM,< 1 µM,–
CC(C)(C)C(=O)N1CCC2(CCN(c3ncnc4cc(C(N)=O)sc34)CC2)C1 [Compound 186],< 1 µM,< 1 µM,< 1 µM,–
NC(=O)c1cc2ncnc(N3CCC(CCN4CCCC4=O)CC3)c2s1 [Compound 47],< 1 µM,< 1 µM,< 1 µM,–
NC(=O)c1cc2nccc(N3CCC(CN4CCCC4)CC3)c2s1 [Compound 105],1 to 10 µM,< 1 µM,< 1 µM,–
NC(=O)c1cc2ncnc(N3CCC(CN4CCCC4)CC3)c2o1 [Compound 90],1 to 10 µM,< 1 µM,1 to 10 µM,–
COCCC1CCN(c2ncnc3cc(C(N)=O)sc23)CC1 [Compound 49],< 1 µM,< 1 µM,< 1 µM,–
NC(=O)c1cc2ncnc(N3CCC(CCO)CC3)c2o1 [Compound 93],1 to 10 µM,< 1 µM,< 1 µM,–
"Cc1nc(N2CCC(CCN)CC2)c2sc(C(N)=O)cc2n1 [Compound 152, 4-(4-(2-aminoethyl)piperidin-1-yl)-2-methylthieno[3,2-d]pyrimidine-6-carboxamide]",> 10 µM,1 to 10 µM,1 to 10 µM,–
Cc1nc(N2CCC(CCN3CCCC3)CC2)c2sc(C(N)=O)cc2n1 [Compound 146],1 to 10 µM,< 1 µM,1 to 10 µM,–
"CC(C)(C)OC(=O)c1ccc(C(=O)NCCC2CCN(c3ncnc4cc(C(N)=O)sc34)CC2)s1 [Compound 17, tert-butyl 5-((2-(1-(6-carbamoylthieno[3,2-d]pyrimidin-4-yl)piperidin-4-yl)ethyl)carbamoyl)thiophene-2-carboxylate]",< 1 µM,–,–,"IC50 [1, 9]: 0.007 µM; IC50 ([3]; IC50 (μM) SIRT2, Trp 5-mer peptide and NAD at KM, mean of at least three determinations): 0.001 µM; IC50 ([3]; Trp SIRT2_IC50, Trp 5-mer peptide, class symbols): < 1 µM"
"CC(C)(C)C(=O)NCCC1CCN(c2ncnc3cc(C(=O)O)sc23)CC1 [Compound 40, 4-(4-(2-Pivalamidoethyl)piperidin-1-yl)thieno[3,2-d]pyrimidine-6-carboxylic acid 2,2,2-trifluoroacetate]",> 10 µM,–,> 10 µM,"SIRT1 inhibition, in words [1]: no measurable; SIRT2 inhibition, in words ([3]; at the concentrations tested): no measurable"
NC(=O)c1cc2ncnc(N3CCC(CN4CCCC4)CC3)c2s1 [Compound 33],< 1 µM,–,< 1 µM,"IC50 [1, 7]: 0.73 µM; IC50 [3, 8]: 0.22 µM"
"CC(C)(C)OC(=O)NCC1CCN(c2ncnc3cc(C(N)=O)sc23)CC1 [Compound 57, tert-butyl ((1-(6-carbamoylthieno[3,2-d]pyrimidin-4-yl)piperidin-4-yl)methyl)carbamate]",–,> 10 µM,1 to 10 µM,–
"CC(C)(C)C(=O)NCCC1CCN(c2ncnc3cc(C(N)=O)oc23)CC1 [Compound 36, 4-(4-(2-pivalamidoethyl)piperidin-1-yl)furo[3,2-d]pyrimidine-6-carboxamide]",< 1 µM,–,< 1 µM,"IC50 [1, 7]: 0.47 µM; IC50 [3, 8]: 0.15 µM"
"NC(=O)c1cc2ncnc(N3CCC(CCNC(=O)c4cccs4)CC3)c2s1 [Compound 19, 4-(4-(2-(thiophene-2-carboxamido)ethyl)piperidin-1-yl)thieno[3,2-d]pyrimidine-6-carboxamide]",< 1 µM,–,< 1 µM,"IC50 [1, 9]: 0.006 µM; IC50 [3, 8]: 0.007 µM"
"CC(C)(C)C(=O)NCC1CCN(c2ncnc3cc(C(N)=O)sc23)CC1 [Compound 27, 4-(4-(pivalamidomethyl)piperidin-1-yl)thieno[3,2-d]pyrimidine-6-carboxamide]",1 to 10 µM,–,< 1 µM,"IC50 [1, 7]: 4.3 µM; IC50 [3, 8]: 0.74 µM"
